Measurements taken from the supplement of paper PMC13207355.
Structures can show the parent of a compound that is named as a salt.

Columns and labels:
Settings in all cases: exposure time: 72 h
E13 [1] = patient-derived glioblastoma stem cells of classical subtype; assay: surviving fraction (nuclei count normalised to DMSO); higher = more cells surviving (less toxic)
E21 [2] = patient-derived glioblastoma stem cells of mesenchymal subtype; assay: as above
E28 [3] = patient-derived glioblastoma stem cells of classical subtype; assay: as above
E31 [4] = patient-derived glioblastoma stem cells of proneural subtype; assay: as above
E34 [5] = patient-derived glioblastoma stem cells of proneural subtype; assay: as above
E57 [6] = patient-derived glioblastoma stem cells of mesenchymal subtype; assay: as above
FT3469 [7] = normal neural stem cell line; assay: as above
E13 [8] = assay: phenotypic distance (Euclidean, principal components) from DMSO controls (arbitrary units); higher = stronger morphological change
E21 [9] = assay: as above
E28 [10] = assay: as above
E31 [11] = assay: as above
E34 [12] = assay: as above
E57 [13] = assay: as above
FT3469 [14] = assay: as above
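For phenotypic distance (Euclidean, principal components) from DMSO controls in this document: cell Painting imaging in 384-well plates, CellProfiler features reduced to at least 20 principal components, Euclidean distance versus same-plate DMSO vehicle wells (0.1% v/v), median over six images per well.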
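For surviving fraction (nuclei count normalised to DMSO) in this document: nuclei counted by high-content imaging of Hoechst-stained cells in laminin-coated 384-well plates, relative to 0.1% DMSO vehicle wells, with staurosporine as cell-death control.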

CN(C)CCN(Cc1ccc(Cl)cc1)c1ccccn1 [Chloropyramine hydrochloride]
Settings | phenotypic distance | surviving fraction
E13 [1], 4.1 nM | – | 0.918
E13 [1], 12.3 nM | – | 0.933
E13 [1], 37 nM | – | 0.988
E13 [1], 111.1 nM | – | 0.881
E13 [1], 333.3 nM | – | 0.847
E13 [1], 1000 nM | – | 0.953
E13 [1], 3000 nM | – | 0.933
E13 [8], 4.1 nM | 0.601 | –
E13 [8], 12.3 nM | 0.447 | –
E13 [8], 37 nM | 0.683 | –
E13 [8], 111.1 nM | 0.455 | –
E13 [8], 333.3 nM | 0.745 | –
E13 [8], 1000 nM | 1.13 | –
E13 [8], 3000 nM | 0.879 | –
E21 [2], 4.1 nM | – | 0.942
E21 [2], 12.3 nM | – | 1.03
E21 [2], 37 nM | – | 0.87
E21 [2], 111.1 nM | – | 0.922
E21 [2], 333.3 nM | – | 0.993
E21 [2], 1000 nM | – | 1.12
E21 [2], 3000 nM | – | 1.08
E21 [9], 4.1 nM | 0.655 | –
E21 [9], 12.3 nM | 0.862 | –
E21 [9], 37 nM | 0.953 | –
E21 [9], 111.1 nM | 0.778 | –
E21 [9], 333.3 nM | 0.678 | –
E21 [9], 1000 nM | 1.38 | –
E21 [9], 3000 nM | 1.62 | –
E28 [3], 4.1 nM | – | 1.1
E28 [3], 12.3 nM | – | 0.995
E28 [3], 37 nM | – | 1.11
E28 [3], 111.1 nM | – | 0.91
E28 [3], 333.3 nM | – | 1.03
E28 [3], 1000 nM | – | 1.19
E28 [3], 3000 nM | – | 1.13
E28 [10], 4.1 nM | 1.02 | –
E28 [10], 12.3 nM | 1.04 | –
E28 [10], 37 nM | 0.979 | –
E28 [10], 111.1 nM | 0.796 | –
E28 [10], 333.3 nM | 1.02 | –
E28 [10], 1000 nM | 0.889 | –
E28 [10], 3000 nM | 0.936 | –
E31 [4], 4.1 nM | – | 0.968
E31 [4], 12.3 nM | – | 0.91
E31 [4], 37 nM | – | 0.853
E31 [4], 111.1 nM | – | 0.919
E31 [4], 333.3 nM | – | 0.897
E31 [4], 1000 nM | – | 0.946
E31 [4], 3000 nM | – | 0.856
E31 [11], 4.1 nM | 1.06 | –
E31 [11], 12.3 nM | 0.615 | –
E31 [11], 37 nM | 0.841 | –
E31 [11], 111.1 nM | 0.689 | –
E31 [11], 333.3 nM | 0.862 | –
E31 [11], 1000 nM | 0.815 | –
E31 [11], 3000 nM | 0.985 | –
E34 [5], 4.1 nM | – | 0.981
E34 [5], 12.3 nM | – | 0.964
E34 [5], 37 nM | – | 1.06
E34 [5], 111.1 nM | – | 0.866
E34 [5], 333.3 nM | – | 0.942
E34 [5], 1000 nM | – | 1.14
E34 [5], 3000 nM | – | 1
E34 [12], 4.1 nM | 1.29 | –
E34 [12], 12.3 nM | 1.02 | –
E34 [12], 37 nM | 1.15 | –
E34 [12], 111.1 nM | 2.53 | –
E34 [12], 333.3 nM | 0.82 | –
E34 [12], 1000 nM | 0.757 | –
E34 [12], 3000 nM | 1.2 | –
E57 [6], 4.1 nM | – | 0.916
E57 [6], 12.3 nM | – | 0.978
E57 [6], 37 nM | – | 0.96
E57 [6], 111.1 nM | – | 0.936
E57 [6], 333.3 nM | – | 0.986
E57 [6], 1000 nM | – | 1.02
E57 [6], 3000 nM | – | 1.03
E57 [13], 4.1 nM | 0.61 | –
E57 [13], 12.3 nM | 0.445 | –
E57 [13], 37 nM | 0.59 | –
E57 [13], 111.1 nM | 0.607 | –
E57 [13], 333.3 nM | 0.699 | –
E57 [13], 1000 nM | 0.663 | –
E57 [13], 3000 nM | 0.75 | –
FT3469 [7], 4.1 nM | – | 0.774
FT3469 [7], 12.3 nM | – | 1.01
FT3469 [7], 37 nM | – | 0.947
FT3469 [7], 111.1 nM | – | 0.867
FT3469 [7], 333.3 nM | – | 0.758
FT3469 [7], 1000 nM | – | 0.878
FT3469 [7], 3000 nM | – | 0.928
FT3469 [14], 4.1 nM | 1.06 | –
FT3469 [14], 12.3 nM | 0.715 | –
FT3469 [14], 37 nM | 0.697 | –
FT3469 [14], 111.1 nM | 0.656 | –
FT3469 [14], 333.3 nM | 0.847 | –
FT3469 [14], 1000 nM | 0.895 | –
FT3469 [14], 3000 nM | 0.975 | –
